Data taken from ChEMBL document CHEMBL4190283, “Pharmacological characterization and binding modes of novel racemic and optically active phenylalanine-based antagonists of AMPA receptors” (Eur J Med Chem, 2017).
Active and inactive are the calls of the source. The rule behind the calls is not given here.

Key:
[1] = Displacement of [3H]KA from KA receptor in rat brain membranes by scintillation counting method; format: cell membranes, Membrane
[2] = Displacement of [3H]AMPA from AMPA receptor in rat brain membranes by scintillation counting method; format: cell membranes, Membrane
Glutamate NMDA receptor = assay: Displacement of [3H]CGP39653 from NMDA receptor in rat brain membranes by scintillation counting method; format: cell membranes, Membrane
Glutamate receptor 2 [3] = biological target: T1, Glutamate receptor 2 (Rattus norvegicus, UniProt P19491); assay: Displacement of [3H]AMPA from rat GluA2(R) receptor flip isoform expressed in sf9 insect cell membranes by TopCount method
T1 sequence (P19491 whole entry, canonical isoform): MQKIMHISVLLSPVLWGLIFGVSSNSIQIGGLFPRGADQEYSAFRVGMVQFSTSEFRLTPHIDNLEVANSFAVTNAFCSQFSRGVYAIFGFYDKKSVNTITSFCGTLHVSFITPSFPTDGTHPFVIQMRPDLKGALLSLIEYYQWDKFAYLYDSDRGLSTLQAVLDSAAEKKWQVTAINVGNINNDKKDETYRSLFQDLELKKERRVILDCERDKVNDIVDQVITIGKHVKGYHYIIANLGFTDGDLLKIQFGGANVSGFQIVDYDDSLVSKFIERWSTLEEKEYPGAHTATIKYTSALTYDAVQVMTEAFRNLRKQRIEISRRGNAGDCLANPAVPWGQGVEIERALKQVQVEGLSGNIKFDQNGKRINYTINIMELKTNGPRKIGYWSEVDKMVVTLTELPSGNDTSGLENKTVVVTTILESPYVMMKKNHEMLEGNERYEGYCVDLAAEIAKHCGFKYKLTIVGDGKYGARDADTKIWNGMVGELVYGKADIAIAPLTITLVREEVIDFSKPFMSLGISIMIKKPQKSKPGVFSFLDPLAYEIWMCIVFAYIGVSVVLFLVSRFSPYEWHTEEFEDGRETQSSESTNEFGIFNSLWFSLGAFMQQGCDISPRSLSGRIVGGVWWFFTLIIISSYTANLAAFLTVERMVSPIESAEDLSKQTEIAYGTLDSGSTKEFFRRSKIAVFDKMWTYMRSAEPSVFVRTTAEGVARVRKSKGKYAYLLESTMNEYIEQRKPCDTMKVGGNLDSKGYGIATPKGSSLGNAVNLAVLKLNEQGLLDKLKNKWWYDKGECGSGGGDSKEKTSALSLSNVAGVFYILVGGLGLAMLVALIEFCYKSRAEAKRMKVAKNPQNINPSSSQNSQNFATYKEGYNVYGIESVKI

Glutamate receptor 3 = Glutamate receptor 3 (Rattus norvegicus, UniProt P19492); assay: Displacement of [3H]AMPA from rat GluA3 receptor flip isoform expressed in sf9 insect cell membranes by TopCount method
Chain of Glutamate receptor 3 (P19492 whole entry, canonical isoform): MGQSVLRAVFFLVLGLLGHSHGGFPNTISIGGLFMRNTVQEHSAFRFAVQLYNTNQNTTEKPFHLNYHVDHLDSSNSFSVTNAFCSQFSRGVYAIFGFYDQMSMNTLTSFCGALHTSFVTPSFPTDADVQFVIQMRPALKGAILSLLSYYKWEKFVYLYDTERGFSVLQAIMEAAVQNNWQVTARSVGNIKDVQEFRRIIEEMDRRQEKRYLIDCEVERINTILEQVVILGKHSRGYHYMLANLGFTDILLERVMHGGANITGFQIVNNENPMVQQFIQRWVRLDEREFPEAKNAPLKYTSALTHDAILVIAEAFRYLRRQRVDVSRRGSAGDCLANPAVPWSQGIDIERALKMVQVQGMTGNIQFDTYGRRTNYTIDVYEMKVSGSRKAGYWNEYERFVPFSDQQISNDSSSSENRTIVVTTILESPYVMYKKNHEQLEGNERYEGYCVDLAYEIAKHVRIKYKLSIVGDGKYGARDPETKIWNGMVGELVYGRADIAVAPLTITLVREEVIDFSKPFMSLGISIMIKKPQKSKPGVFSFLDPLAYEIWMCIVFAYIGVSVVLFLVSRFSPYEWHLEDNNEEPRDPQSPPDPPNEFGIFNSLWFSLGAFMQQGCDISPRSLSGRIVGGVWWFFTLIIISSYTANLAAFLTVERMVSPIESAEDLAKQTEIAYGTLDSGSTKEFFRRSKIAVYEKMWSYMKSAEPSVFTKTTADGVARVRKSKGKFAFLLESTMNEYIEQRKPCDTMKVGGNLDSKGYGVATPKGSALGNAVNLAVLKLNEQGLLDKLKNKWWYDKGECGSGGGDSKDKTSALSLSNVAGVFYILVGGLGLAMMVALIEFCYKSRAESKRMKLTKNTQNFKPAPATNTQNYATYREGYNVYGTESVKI

Rattus norvegicus = species: Rattus norvegicus; assay: Selectivity ratio of Ki for rat GluA3 receptor flip isoform expressed in sf9 insect cell membranes to Ki for rat GluA2(R) receptor flip isoform expressed in sf9 insect cell membranes
[4] = biological target: Glutamate receptor 2 (Rattus norvegicus) (UniProt P19491); assay: Agonist activity at rat GluA2(Q) receptor flop isoform expressed in Xenopus laevis oocytes at 300 uM by two electrode voltage clamp method; format: cell-based
Chain of Glutamate receptor 2 (Rattus norvegicus) (P19491 whole entry, canonical isoform): as the sequence (P19491 whole entry, canonical isoform) above

Glutamate receptor 2 [5] = biological target: T1, Glutamate receptor 2; assay: Displacement of [3H]AMPA from rat GluA2(Q) receptor flop isoform by TopCount method
[6] = biological target: Glutamate receptor 2 (Rattus norvegicus) (UniProt P19491); assay: Antagonist activity at rat GluA2(Q) receptor flop isoform expressed in Xenopus laevis oocytes assessed as inhibition of (S)-glutamate-induced channel activation by two electrode voltage clamp method; format: cell-based
[7] = Displacement of [3H]AMPA from AMPA receptor in rat brain membranes; format: cell membranes, Membrane

Compound	Ki [1] [µM]	Ki [2] [µM]	pKi [2]	Ki (Glutamate NMDA receptor) [µM]	further results
NC(Cc1cc(Cl)c(Cl)c(-c2cncc(O)c2)c1)C(=O)O (racemic)	> 100				
NC(Cc1cccc(-c2cccc(O)c2)c1)C(=O)O (racemic)	> 100				
NC(Cc1cc(Cl)cc(-c2ccc(O)cc2)c1)C(=O)O (racemic)	> 100	46	4.34	> 100	
COc1c(Cl)cc(CC(N)C(=O)O)cc1-c1cccc(O)c1 (racemic)	> 100	> 100		> 100	
NC(Cc1ccc(Cl)c(-c2ccc(O)cc2)c1)C(=O)O (racemic)	> 100	65	4.19	> 100	
N[C@@H](Cc1cc(Cl)cc(-c2cccc(O)c2)c1)C(=O)O					Ki (Glutamate receptor 2 [3]): 40.8 µM; Ki (Glutamate receptor 3): > 100 µM
NC(Cc1cc(-c2cc(O)cc(F)c2)c(Cl)c([N+](=O)[O-])c1)C(=O)O (racemic)	26	3.4	5.47	> 100	pKi [1]: 4.58
NC(Cc1cc(-c2ccc(O)cc2)cc([N+](=O)[O-])c1)C(=O)O (racemic)	> 100	21	4.68	> 100	
N[C@H](Cc1cc(-c2cc(O)ccc2O)c(Cl)c([N+](=O)[O-])c1)C(=O)O					Ratio Ki (Rattus norvegicus): 4; Activity [4]: inactive; Ki (Glutamate receptor 2 [3]): 1.71 µM; Ki (Glutamate receptor 3): 7.01 µM; Ki (Glutamate receptor 2 [5]): 1.74 µM; Kb [6]: 2.13 µM; inhibition [6]: Dose-dependent effect
N[C@H](Cc1cc(Cl)cc(-c2cccc(O)c2)c1)C(=O)O					Ki (Glutamate receptor 2 [3]): 20.7 µM; Ki (Glutamate receptor 3): > 100 µM
Nc1c(Cl)cc(CC(N)C(=O)O)cc1-c1cccc(O)c1 (racemic)	> 100	10	4.99	> 100	
Nc1ccc(CC(N)C(=O)O)cc1-c1cccc(O)c1 (racemic)	> 100	9.1	5.05	> 100	
NC(Cc1ccc([N+](=O)[O-])c(-c2cccc(O)c2)c1)C(=O)O (racemic)	> 100	21	4.67	> 100	
NC(Cc1cc(-c2ccc(O)cc2)c(Cl)c([N+](=O)[O-])c1)C(=O)O (racemic)	> 100	23	4.66	> 100	
NC(Cc1cc(-c2cc(O)ccc2O)c(Cl)c([N+](=O)[O-])c1)C(=O)O (racemic)	15	0.92	6.04	> 100	pKi [1]: 4.83
N[C@@H](Cc1ccc(Cl)c(-c2cccc(O)c2)c1)C(=O)O					Ki (Glutamate receptor 2 [3]): > 100 µM; Ki (Glutamate receptor 3): > 100 µM
NC(Cc1cc(Cl)c(O)c(-c2cccc(O)c2)c1)C(=O)O (racemic)	> 100	7.9	5.1	> 100	
NC(Cc1cc(Cl)cc(-c2cccc(O)c2)c1)C(=O)O (racemic)	> 100	9.3	5.06	> 100	
Nc1c(-c2cccc(O)c2)cc(CC(N)C(=O)O)cc1[N+](=O)[O-] (racemic)	> 100	14	4.84	> 100	
N[C@@H](Cc1cc(-c2cc(O)ccc2O)c(Cl)c([N+](=O)[O-])c1)C(=O)O					Ki (Glutamate receptor 2 [3]): 18.4 µM; Ki (Glutamate receptor 3): > 100 µM
CC(C)(C)c1onc(OCP(=O)(O)O)c1C[C@H](N)C(=O)O	> 100				Ki [7]: 16 µM
NC(Cc1ccc(Cl)c(-c2cccc(O)c2)c1)C(=O)O (racemic)	> 100	9.2	5.04	> 100	
NC(Cc1cc(Cl)c(Cl)c(-c2cccc(O)c2)c1)C(=O)O (racemic)	> 100				
NC(Cc1cc(-c2cccc(O)c2)cc([N+](=O)[O-])c1)C(=O)O (racemic)	> 100	8.2	5.09	> 100	
NC(Cc1ccc([N+](=O)[O-])c(-c2ccc(O)cc2)c1)C(=O)O (racemic)	> 100	64	4.2	> 100	
N[C@H](Cc1ccc(Cl)c(-c2cccc(O)c2)c1)C(=O)O					Ki (Glutamate receptor 2 [3]): 21.9 µM; Ki (Glutamate receptor 3): > 100 µM
NC(Cc1cc(-c2cncc(O)c2)c(Cl)c([N+](=O)[O-])c1)C(=O)O (racemic)	> 100	2	5.7	> 100	
NC(Cc1cc(-c2cccc(O)c2)c(Cl)c([N+](=O)[O-])c1)C(=O)O (racemic)	> 100	3.1	5.52	> 100	
